# Source: US4939241A, “Amino acid derivatives of antitumor activity” (Fujisawa Pharmaceutical Co., Ltd., priority 1987, dated 1990)
# Tests used:
# [1] = tested on: human mammary adenocarcinoma MCF-7 cell; test: Inhibition of human mammary adenocarcinoma MCF-7 cell growth in vitro (MTT assay); type: cell-based; conditions: MCF7, 168 h, MCF-7 cells, seven days at 37° C.
# Procedure: Inhibition of human mammary adenocarcinoma MCF-7 cell growth in vitro by some compounds of the amino acid derivatives (I)
# The cytotoxicity test was performed in microtiter plates, with each well containing 3×10^3 MCF-7 cells in 100 μl Eagle's minimum essential medium supplemented with 10% fetal calf serum, sodium pyruvate, nonessential amino acids, penicillin (50 units/ml) and streptomycin (50 μg/ml). The cells were incubated at 37° C. for seven days in humidified atomosphere of 5% carbon dioxide and 95% of air and the colorimetric MTT assay was performed as described in Test 1.
# The test compound was dissolved and diluted in Eagle's minimum essential medium and added to the culture to give final concentration of 30 μg/ml or less.
# [2] = Acute toxicity in BDF1 mice by intravenous injection; conditions: mouse, in vivo
# Procedure: Acute toxicity of FR-900840 substance in BDF1 mice by intravenous injection is 180 mg/kg.
# [3] = tested on: human lung adenocarcinoma A549 cell; test: Inhibition of human lung adenocarcinoma A549 cell growth in vitro (MTT assay); type: cell-based; conditions: 168 h, A549 cells, seven days at 37° C.
# Procedure: Inhibition of human lung adenocarcinoma A549 cell growth in vitro by some compounds of the amino acid derivatives (I)
# The cytotoxicity test was performed in microtiter plates, with each well containing 3×10^3 A549 cells in 100 μl Dulbecco's minimum essential medium supplemented with 10% fetal calf serum, penicillin (50 units/ml) and streptomycin (50 μg/ml). The cells were incubated at 37° C. for seven days and the colorimetric MTT (tetrazolium) assay was performed according to the method described by Mosmann (J. Immunol. Methods, 65, 55-63, 1983). MTT [3-(4,5-dimethylthiazol-2-yl)-2,5-diphenyl tetrazolium bromide, made by Sigma] was dissolved in PBS at 5 mg/ml and filtered to sterilize and remove a small amount of insoluble residue. After the culture of A549 cells was terminated, this MTT solution (10 μl per 100μl medium) was added to plates were further incubated at 37° C. for 4 hours. Acid-isopropanol (100 μl of 0.04N HCl in isopropanol) was added to all wells and mixed thoroughly to dissolve the dark blue crystals. After all crystals were dissolved, the plates were read on a 2-wavelength microplate photometer (Model MTP-22; Corona Electric Co., Ltd., Katsuta, Japan) at 550 nm, a reference wavelength of 660 nm. The object compound of this invention was dissolved and diluted in Dulbecco's minimum essential medium and added to the culture to give final concentration of 30μg/ml or less.
# [4] = Solubility of FR-900840 substance; type: physicochemical
IC50 [1],IC50 [3],Structure (SMILES),also measured
0.00082 ng/mL,0.018 ng/mL,"C[C@H](O)C(=[N+]=[N-])C(=O)OC[C@H](N)C(=O)O [Example 4, O-[2-Diazo-3(S)-hydroxy-1-oxobutyl]-L-serine]",–
0.076 ng/mL,0.14 ng/mL,[N-]=[N+]=C(C(=O)OC[C@H](N)C(=O)O)C(O)c1ccccc1 (stereo partly shown) [Example 5],–
0.0017 ng/mL,0.0018 ng/mL,"[N-]=[N+]=C(CO)C(=O)OC[C@H](N)C(=O)O [Example 6, O-(2-Diazo-3-hydroxy-1-oxopropyl)-L-serine]",–

# The remaining lines, values behind:
Structure (SMILES),IC50 [1],IC50 [3],also measured
"C[C@@H](O)C(=[N+]=[N-])C(=O)OC[C@H](N)C(=O)O [Example 1, O-[2-diazo-3(R)-hydroxy-1-oxobutyl]-L-serine]",0.0018 ng/mL,0.012 ng/mL,LD50 [2]: 180 mg/kg; Solubility ([4]; acetone): insoluble; Solubility ([4]; benzene): insoluble; Solubility ([4]; chloroform): insoluble; Solubility ([4]; diethyl ether): insoluble; Solubility ([4]; ethanol): sparingly soluble; Solubility ([4]; ethyl acetate): insoluble; Solubility ([4]; methanol): sparingly soluble; Solubility ([4]; water): soluble
"C[C@@H](O)C(=[N+]=[N-])C(=O)OC[C@H](NC(=O)C(F)(F)F)C(=O)O [Example 2, O-[2-Diazo-3(R)-hydroxy-1-oxobutyl]-N-trifluoroacetyl-L-serine]",0.0068 ng/mL,0.0105 ng/mL,–
